Results taken from patent publication US12533428B2, “Multimodal fluorine-CY3/5/7-DOTA-hapten compositions, diagnostics, fluorescence guided surgery and radioimmunotherapy” (Memorial Sloan Kettering Cancer Center, priority 2019, dated 2026).

Assay: In vivo biodistribution and pharmacokinetics in tumor free mice (gamma counter)
Method: The in vivo biodistribution and pharmacokinetics of ([^177Lu]-Compound 6) and BnDOTA[^177Lu] was investigated in tumor free mice. See FIGS. 17A-17B and Tables 2 and 3. Mice were dosed with radiolabeled probes at t=0 and sacrificed at various time points. Organs were harvested and activity was counted by gamma counter. Tables 2-3 show the serial biodistribution data for the analyzed organs of Compound 6 and Compound 2, respectively. FIG. 17A overlays the time course in activity in either vital tissues (left panel) or the blood (right panel) between the two probes.

Uptake (Blood, 1 h after dosing): 0.068 ± 0.029 % injected Dose/gram | Uptake (Blood, 2 h after dosing): 0.013 ± 0.005 % injected Dose/gram | Uptake (Blood, 4 h after dosing): 0.001 ± 0 % injected Dose/gram | Uptake (Blood, 24 h after dosing): 0.001 ± 0 % injected Dose/gram | Uptake (Blood, 48 h after dosing): 0.001 ± 0.001 % injected Dose/gram | Uptake (Bone, 1 h after dosing): 0.04 ± 0.012 % injected Dose/gram | Uptake (Bone, 2 h after dosing): 0.325 ± 0.276 % injected Dose/gram | Uptake (Bone, 4 h after dosing): 0.015 ± 0.013 % injected Dose/gram | Uptake (Bone, 24 h after dosing): 0.01 ± 0.008 % injected Dose/gram | Uptake (Bone, 48 h after dosing): 0.018 ± 0.028 % injected Dose/gram | Uptake (Brain, 1 h after dosing): 0.015 ± 0.006 % injected Dose/gram | Uptake (Brain, 2 h after dosing): 0.025 ± 0.01 % injected Dose/gram | Uptake (Brain, 4 h after dosing): 0.01 ± 0 % injected Dose/gram | Uptake (Brain, 24 h after dosing): 0.001 ± 0 % injected Dose/gram | Uptake (Brain, 48 h after dosing): 0.001 ± 0.001 % injected Dose/gram | Biodistribution, comparison of the two probes (FIG. 17B): comparable biodistribution | Uptake (Heart, 1 h after dosing): 0.033 ± 0.013 % injected Dose/gram | Uptake (Heart, 2 h after dosing): 0.023 ± 0.005 % injected Dose/gram | Uptake (Heart, 4 h after dosing): 0.01 ± 0 % injected Dose/gram | Uptake (Heart, 24 h after dosing): 0.01 ± 0 % injected Dose/gram | Uptake (Heart, 48 h after dosing): 0.016 ± 0.03 % injected Dose/gram | Uptake (Kidneys, 1 h after dosing): 0.86 ± 0.177 % injected Dose/gram | Uptake (Kidneys, 2 h after dosing): 0.8 ± 0.065 % injected Dose/gram | Uptake (Kidneys, 4 h after dosing): 0.695 ± 0.106 % injected Dose/gram | Uptake (Kidneys, 24 h after dosing): 0.448 ± 0.109 % injected Dose/gram | Uptake (Kidneys, 48 h after dosing): 0.233 ± 0.153 % injected Dose/gram | Uptake (Lg. Intestine, 1 h after dosing): 0.088 ± 0.083 % injected Dose/gram | Uptake (Lg. Intestine, 2 h after dosing): 2.878 ± 2.718 % injected Dose/gram | Uptake (Lg. Intestine, 4 h after dosing): 1.865 ± 0.963 % injected Dose/gram | Uptake (Lg. Intestine, 24 h after dosing): 0.02 ± 0 % injected Dose/gram | Uptake (Lg. Intestine, 48 h after dosing): 0.018 ± 0.013 % injected Dose/gram | Uptake (Liver, 1 h after dosing): 0.658 ± 0.074 % injected Dose/gram | Uptake (Liver, 2 h after dosing): 0.358 ± 0.083 % injected Dose/gram | Uptake (Liver, 4 h after dosing): 0.065 ± 0.024 % injected Dose/gram | Uptake (Liver, 24 h after dosing): 0.028 ± 0.01 % injected Dose/gram | Uptake (Liver, 48 h after dosing): 0.018 ± 0.012 % injected Dose/gram | Uptake (Lungs, 1 h after dosing): 0.083 ± 0.032 % injected Dose/gram | Uptake (Lungs, 2 h after dosing): 0.048 ± 0.005 % injected Dose/gram | Uptake (Lungs, 4 h after dosing): 0.023 ± 0.005 % injected Dose/gram | Uptake (Lungs, 24 h after dosing): 0.013 ± 0.005 % injected Dose/gram | Uptake (Lungs, 48 h after dosing): 0.01 ± 0 % injected Dose/gram | Uptake (Muscle, 1 h after dosing): 0.028 ± 0.01 % injected Dose/gram | Uptake (Muscle, 2 h after dosing): 0.043 ± 0.013 % injected Dose/gram | Uptake (Muscle, 4 h after dosing): 0.013 ± 0.005 % injected Dose/gram | Uptake (Muscle, 24 h after dosing): 0.003 ± 0.005 % injected Dose/gram | Uptake (Muscle, 48 h after dosing): 0.051 ± 0.1 % injected Dose/gram | Uptake (Sm. Intestine, 1 h after dosing): 1.493 ± 0.554 % injected Dose/gram | Uptake (Sm. Intestine, 2 h after dosing): 0.86 ± 0.389 % injected Dose/gram | Uptake (Sm. Intestine, 4 h after dosing): 0.128 ± 0.05 % injected Dose/gram | Uptake (Sm. Intestine, 24 h after dosing): 0.01 ± 0 % injected Dose/gram | Uptake (Sm. Intestine, 48 h after dosing): 0.005 ± 0.006 % injected Dose/gram | Uptake (Spleen, 1 h after dosing): 0.06 ± 0.041 % injected Dose/gram | Uptake (Spleen, 2 h after dosing): 0.053 ± 0.005 % injected Dose/gram | Uptake (Spleen, 4 h after dosing): 0.025 ± 0.01 % injected Dose/gram | Uptake (Spleen, 24 h after dosing): 0.023 ± 0.005 % injected Dose/gram | Uptake (Spleen, 48 h after dosing): 0.01 ± 0.012 % injected Dose/gram | Uptake (Stomach, 1 h after dosing): 0.06 ± 0.055 % injected Dose/gram | Uptake (Stomach, 2 h after dosing): 0.2 ± 0.071 % injected Dose/gram | Uptake (Stomach, 4 h after dosing): 0.045 ± 0.017 % injected Dose/gram | Uptake (Stomach, 24 h after dosing): 0.01 ± 0 % injected Dose/gram | Uptake (Stomach, 48 h after dosing): 0.013 ± 0.013 % injected Dose/gram | Uptake (Tail, 1 h after dosing): 0.245 ± 0.179 % injected Dose/gram | Uptake (Tail, 2 h after dosing): 0.183 ± 0.056 % injected Dose/gram | Uptake (Tail, 4 h after dosing): 0.118 ± 0.041 % injected Dose/gram | Uptake (Tail, 24 h after dosing): 0.065 ± 0.044 % injected Dose/gram | Uptake (Tail, 48 h after dosing): 0.01 ± 0.008 % injected Dose/gram | Clearance (time course of activity in vital tissues and blood) (comparison of the two probes): cleared at similar rates
Substance: BnDOTA[^177Lu] [[^177Lu]-Compound 2, reference compound]
